Assay results as given in patent US7446199B2, “Compositions useful as inhibitors of protein kinases” (Vertex Pharmaceuticals Incorporated, priority 2003, dated 2008).

What was measured:
Format in all cases: biochemical
JAK3 = molecular target: T1, JAK3 (Homo sapiens, UniProt P52333); assay: JAK3 inhibition assay (ELISA, Poly (Glu, Ala, Tyr) coated plates); settings: 2 mM ATP, 60 minutes at 30° C.
T1 sequence (P52333 1-1124): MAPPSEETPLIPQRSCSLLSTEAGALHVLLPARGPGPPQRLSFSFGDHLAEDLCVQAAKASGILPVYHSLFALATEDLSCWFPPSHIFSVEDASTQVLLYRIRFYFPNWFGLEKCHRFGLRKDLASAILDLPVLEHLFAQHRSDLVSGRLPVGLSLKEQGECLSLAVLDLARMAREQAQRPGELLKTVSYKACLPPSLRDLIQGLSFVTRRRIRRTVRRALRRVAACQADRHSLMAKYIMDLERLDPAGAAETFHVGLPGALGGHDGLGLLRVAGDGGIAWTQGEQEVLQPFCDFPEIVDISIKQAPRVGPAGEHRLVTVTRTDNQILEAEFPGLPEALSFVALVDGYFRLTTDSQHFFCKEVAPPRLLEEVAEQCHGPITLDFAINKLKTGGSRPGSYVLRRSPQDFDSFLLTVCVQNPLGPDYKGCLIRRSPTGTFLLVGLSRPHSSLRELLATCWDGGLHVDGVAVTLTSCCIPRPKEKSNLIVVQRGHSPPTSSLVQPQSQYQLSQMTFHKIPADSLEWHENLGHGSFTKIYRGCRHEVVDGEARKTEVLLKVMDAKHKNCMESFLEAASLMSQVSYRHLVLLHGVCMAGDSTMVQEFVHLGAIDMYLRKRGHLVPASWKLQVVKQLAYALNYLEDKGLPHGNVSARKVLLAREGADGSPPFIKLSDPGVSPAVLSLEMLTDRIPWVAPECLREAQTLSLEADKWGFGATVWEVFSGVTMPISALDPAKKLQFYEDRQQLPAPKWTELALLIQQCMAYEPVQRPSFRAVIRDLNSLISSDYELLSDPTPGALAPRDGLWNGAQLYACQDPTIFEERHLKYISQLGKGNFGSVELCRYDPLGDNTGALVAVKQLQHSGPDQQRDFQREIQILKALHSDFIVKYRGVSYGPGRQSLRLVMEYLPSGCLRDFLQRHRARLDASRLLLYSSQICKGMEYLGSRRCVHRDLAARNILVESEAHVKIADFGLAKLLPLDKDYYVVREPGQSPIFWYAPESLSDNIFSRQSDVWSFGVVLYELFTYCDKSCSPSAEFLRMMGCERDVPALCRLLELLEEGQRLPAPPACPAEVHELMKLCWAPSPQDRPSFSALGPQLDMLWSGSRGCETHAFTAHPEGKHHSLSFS
Summary of the method: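 ELISA on Poly(Glu,Ala,Tyr) 6:3:1-coated plates with 2 mM ATP and 5 mM MgCl2. JAK enzyme started the reaction, run 60 min at 30° C. Phosphotyrosine was detected with HRP-conjugated 4G10 antibody and TMB, read at 450 nm, and IC50 was derived from optical densities.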

KDR = KDR (Homo sapiens, UniProt P35968); assay: KDR enzyme assay, coupled enzyme assay; settings: 300 μM ATP, 10 μM poly E4Y, 30 nM KDR, 37° C.
Procedure: Compounds were screened for their ability to inhibit KDR using a standard coupled enzyme assay (Fox et al., Protein Sci., (1998) 7, 2249). Assays were carried out in a mixture of 200 mM HEPES 7.5, 10 mM MgCl2, 25 mM NaCl, 1 mM DTT and 1.5% DMSO. Final substrate concentrations in the assay were 300 μM ATP (Sigma Chemicals) and 10 μM poly E4Y (Sigma). Assays were carried out at 37° C. and 30 nM KDR. Final concentrations of the components of the coupled enzyme system were 2.5 mM phosphoenolpyruvate, 200 μM NADH, 30 μg/ML pyruvate kinase and 10 μg/ml lactate dehydrogenase.
An assay stock buffer solution was prepared containing all of the reagents listed above, with the exception of ATP and the test compound of interest. 177 μl of the stock solution was placed in a 96 well plate followed by addition of 3 μl of 2 mM DMSO stock containing the test compound (final compound concentration 30 μM). The plate was preincubated for about 10 minutes at 37° C. and the reaction initiated by addition of 20 μl of ATP (final concentration 300 μM). Rates of reaction were obtained using a Molecular Devices plate reader (Sunnyvale, Calif.) over a 5 minute read time at 37° C.

c-KIT = molecular target: T2, c-KIT (Homo sapiens, UniProt P10721); assay: Inhibition of c-KIT, radiometric filter-binding assay; settings: 700 μM ATP, 0.5 mg/mL pE4Y, room temperature
T2 construct: 0.02% BSA and 25 nM c-KIT
Procedure: Compounds are screened for their ability to inhibit c-KIT activity using a radiometric filter-binding assay. This assay monitors the ^33P incorporation into a substrate poly(Glu, Tyr) 4:1 (pE4Y). Reactions are carried out in a solution containing 100 mM HEPES (pH 7.5), 10 mM MgCl2, 25 mM NaCl, 1 mM DTT, 0.01% BSA and 2.5% DMSO. Final substrate concentrations in the assay were 700 μM ATP and 0.5 mg/mL pE4Y (both from Sigma Chemicals, St Louis, Mo.). The final concentration of compounds is generally between 0.01 and 5 μM. Typically, a 12-point titration is conducted by preparing serial dilutions from 10 mM DMSO stock of test compound. Reactions were carried out at room temperature.
Two assay solutions are prepared. Solution 1 contains 100 mM HEPES (pH 7.5), 10 mM MgCl2, 25 mM NaCl, 1 mg/ml pE4Y and 1.4 mM ATP(containing 0.5 μCi of [γ-^33P]ATP for each reaction). Solution 2 contains 100 mM HEPES (pH 7.5), 10 mM MgCl2, 25 mM NaCl, 2 mM DTT, 0.02% BSA and 25 nM c-KIT. The assay is run on a 96 well plate by mixing 33 μL of Solution1 and 1.65 μL of the test compounds. The reaction is initiated with 33 μL of Solution2. After incubation for 20 minutes at room temperature, the reaction was stopped with 50 μL of 10% TCA containing 0.2 mM of ATP. All of the reaction volume is then transferred to a filter plate and washed with 5% TCA by a Harvester9600 from TOMTEC (Hamden, Conn.). The amount of ^33P incorporation into pE4y is analyzed by a Packard TopCount Microplate Scintillation Counter (Meriden, Conn.). The data is fitted using Prism software to get an IC50 or Ki.

Chain of KDR (P35968 20-1356): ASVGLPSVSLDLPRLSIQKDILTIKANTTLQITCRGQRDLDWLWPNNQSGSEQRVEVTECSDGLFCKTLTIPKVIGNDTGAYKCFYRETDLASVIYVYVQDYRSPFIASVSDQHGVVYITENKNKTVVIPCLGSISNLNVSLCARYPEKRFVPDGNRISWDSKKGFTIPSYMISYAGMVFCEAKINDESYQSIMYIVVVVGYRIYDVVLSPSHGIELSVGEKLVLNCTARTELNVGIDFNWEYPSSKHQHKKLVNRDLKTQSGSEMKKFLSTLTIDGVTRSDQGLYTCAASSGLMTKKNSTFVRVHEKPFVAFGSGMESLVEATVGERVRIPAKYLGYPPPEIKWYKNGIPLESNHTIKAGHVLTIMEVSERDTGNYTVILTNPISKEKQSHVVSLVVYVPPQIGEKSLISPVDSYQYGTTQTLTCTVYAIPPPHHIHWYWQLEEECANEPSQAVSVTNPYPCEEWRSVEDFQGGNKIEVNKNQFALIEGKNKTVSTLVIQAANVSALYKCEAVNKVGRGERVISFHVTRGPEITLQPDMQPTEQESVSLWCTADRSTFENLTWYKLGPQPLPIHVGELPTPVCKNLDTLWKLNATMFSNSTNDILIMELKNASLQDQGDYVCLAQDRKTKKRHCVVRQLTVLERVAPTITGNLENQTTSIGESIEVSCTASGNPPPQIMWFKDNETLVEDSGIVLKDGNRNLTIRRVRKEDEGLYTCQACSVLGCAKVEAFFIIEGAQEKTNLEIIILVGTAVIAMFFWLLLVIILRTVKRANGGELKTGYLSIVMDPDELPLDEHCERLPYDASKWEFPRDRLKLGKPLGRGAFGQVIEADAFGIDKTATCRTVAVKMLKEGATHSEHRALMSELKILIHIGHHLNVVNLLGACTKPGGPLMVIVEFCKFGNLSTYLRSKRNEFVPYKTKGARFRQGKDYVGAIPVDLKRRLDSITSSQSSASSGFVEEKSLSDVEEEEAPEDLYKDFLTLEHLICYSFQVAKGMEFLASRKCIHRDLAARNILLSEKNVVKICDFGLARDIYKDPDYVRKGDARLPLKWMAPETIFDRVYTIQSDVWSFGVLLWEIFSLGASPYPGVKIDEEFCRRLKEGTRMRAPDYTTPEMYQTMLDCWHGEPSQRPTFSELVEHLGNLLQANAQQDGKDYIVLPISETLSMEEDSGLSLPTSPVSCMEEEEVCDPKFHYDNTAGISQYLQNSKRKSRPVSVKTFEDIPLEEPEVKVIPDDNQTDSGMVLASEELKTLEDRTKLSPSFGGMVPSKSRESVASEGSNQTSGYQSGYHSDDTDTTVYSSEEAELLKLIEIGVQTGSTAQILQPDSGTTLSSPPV
T2 sequence (P10721 26-976): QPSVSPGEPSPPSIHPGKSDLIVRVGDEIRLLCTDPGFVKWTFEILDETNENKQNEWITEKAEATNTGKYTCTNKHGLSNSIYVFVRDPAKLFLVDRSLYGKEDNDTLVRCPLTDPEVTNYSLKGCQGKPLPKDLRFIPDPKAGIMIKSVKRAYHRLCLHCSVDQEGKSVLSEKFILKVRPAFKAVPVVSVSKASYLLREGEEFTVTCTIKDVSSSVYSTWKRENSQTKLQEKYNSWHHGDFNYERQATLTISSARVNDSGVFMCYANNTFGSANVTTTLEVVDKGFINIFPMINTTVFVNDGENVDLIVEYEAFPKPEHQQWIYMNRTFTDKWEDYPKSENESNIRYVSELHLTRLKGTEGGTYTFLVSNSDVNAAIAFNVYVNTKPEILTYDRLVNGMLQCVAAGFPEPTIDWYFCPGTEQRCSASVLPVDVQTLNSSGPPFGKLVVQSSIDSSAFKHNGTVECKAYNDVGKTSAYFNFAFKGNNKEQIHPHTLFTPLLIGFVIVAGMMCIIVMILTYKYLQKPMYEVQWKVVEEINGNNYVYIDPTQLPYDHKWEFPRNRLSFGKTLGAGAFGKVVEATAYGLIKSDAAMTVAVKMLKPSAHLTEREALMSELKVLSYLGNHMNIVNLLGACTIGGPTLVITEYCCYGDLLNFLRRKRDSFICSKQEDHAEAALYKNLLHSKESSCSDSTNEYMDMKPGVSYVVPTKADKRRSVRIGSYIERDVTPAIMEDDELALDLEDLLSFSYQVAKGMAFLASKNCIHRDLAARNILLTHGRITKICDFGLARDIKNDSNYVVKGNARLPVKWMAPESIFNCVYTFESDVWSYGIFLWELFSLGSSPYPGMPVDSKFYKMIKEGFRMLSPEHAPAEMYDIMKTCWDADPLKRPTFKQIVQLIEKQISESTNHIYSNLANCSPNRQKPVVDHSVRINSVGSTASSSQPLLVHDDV

| SMILES | Ki (JAK3) [nM] | Ki (KDR) [nM] | Ki (c-KIT) [nM] |
| --- | --- | --- | --- |
| Fc1cccc(-c2cnoc2-c2c[nH]c3ncccc23)c1F [Compound 1, 3-[4-(2,3-Difluoro-phenyl)-isoxazol-5-yl]-1H-pyrrolo[2,3-b]pyridine] | 200 to 1000 | 1000 to 12500 | < 200 |
| COc1cnc2[nH]cc(-c3oncc3-c3cccc(F)c3F)c2c1 [Compound 38, 3-[4-(2,3-Difluoro-phenyl)-isoxazol-5-yl]-5-methoxy-1H-pyrrolo[2,3-b]pyridine] | < 200 | 200 to 1000 | < 200 |
| Fc1ccc(-c2cnoc2-c2c[nH]c3ncccc23)c(F)c1F [Compound 40, 3-[4-(2,3,4-Trifluoro-phenyl)-isoxazol-5-yl]-1H-pyrrolo [2,3-b]pyridine] | 1000 to 12500 | 200 to 1000 | 200 to 1000 |
| Oc1cnc2[nH]cc(-c3oncc3-c3cccc(F)c3F)c2c1 [Compound 43, 3-[4-(2,3-Difluoro-phenyl)-isoxazol-5-yl]-1H-pyrrolo[2,3-b]pyridin-5-ol] | < 200 | 200 to 1000 | < 200 |
| Oc1cnc2[nH]cc(-c3oncc3-c3cccc(Cl)c3Cl)c2c1 [Compound 48, 3-[4-(2,3-Dichloro-phenyl)-isoxazol-5-yl]-1H-pyrrolo[2,3-b]pyridin-5-ol] | < 200 | < 200 | 200 to 1000 |
| COc1cnc2[nH]cc(-c3oncc3-c3cccc(Cl)c3Cl)c2c1 [Compound 49, 3-[4-(2,3-Dichloro-phenyl)-isoxazol-5-yl]-5-methoxy-1H-pyrrolo[2,3-b]pyridine] | < 200 | < 200 | < 200 |
| CN(C)CC#Cc1cnc2[nH]cc(-c3oncc3-c3cccc(F)c3F)c2c1 [Compound 53, (3-{3-[4-(2,3-Difluoro-phenyl)-isoxazol-5-yl]-1H-pyrrolo[2,3-b]pyridin-5-yl}-prop-2-ynyl)-dimethyl-amine] | 200 to 1000 | 200 to 1000 | < 200 |
| Fc1cccc(-c2cnoc2-c2c[nH]c3ncc(-c4ccncc4)cc23)c1F [Compound 57, 3-[4-(2,3-Difluoro-phenyl)-isoxazol-5-yl]-5-pyridin-4-yl-1H-pyrrolo[2,3-b]pyridine] | < 200 | 200 to 1000 | < 200 |
| Fc1cccc(-c2cnoc2-c2c[nH]c3ncc(-c4cccnc4)cc23)c1F [Compound 59, 3-[4-(2,3-Difluoro-phenyl)-isoxazol-5-yl]-5-pyridin-3-yl-1H-pyrrolo[2,3-b]pyridine] | < 200 | 200 to 1000 | < 200 |
| CN1CCC(c2cnc3[nH]cc(-c4oncc4-c4cccc(F)c4F)c3c2)CC1 [Compound 60, 3-[4-(2,3-Difluoro-phenyl)-isoxazol-5-yl]-5-(1-methyl-piperidin-4-yl)-1H-pyrrolo[2,3-b]pyridine] | 1000 to 12500 | – | 200 to 1000 |
| CN(C)c1cccc(-c2cnc3[nH]cc(-c4oncc4-c4cccc(F)c4F)c3c2)c1 [Compound 61, (3-{3-[4-(2,3-Difluoro-phenyl)-isoxazol-5-yl]-1H-pyrrolo[2,3-b]pyridin-5-yl}-phenyl)-dimethyl-amine] | 200 to 1000 | 200 to 1000 | < 200 |
| Fc1cccc(-c2cnoc2-c2c[nH]c3ncc(C4CCNCC4)cc23)c1F [Compound 62, 3-[4-(2,3-Difluoro-phenyl)-isoxazol-5-yl]-5-piperidin-4-yl-1H-pyrrolo[2,3-b]pyridine] | 1000 to 12500 | 1000 to 12500 | 200 to 1000 |
| CC(=O)Nc1cccc(-c2cnc3[nH]cc(-c4oncc4-c4cccc(F)c4F)c3c2)c1 [Compound 65, N-(3-{3-[4-(2,3-Difluoro-phenyl)-isoxazol-5-yl]-1H-pyrrolo[2,3-b]pyridin-5-yl}-phenyl)-acetamide] | < 200 | < 200 | < 200 |
| O=c1ccc(-c2cnc3[nH]cc(-c4oncc4-c4cccc(F)c4F)c3c2)c[nH]1 [Compound 67, 5-{3-[4-(2,3-Difluoro-phenyl)-isoxazol-5-yl]-1H-pyrrolo [2,3-b]pyridin-5-yl}-1H-pyridin-2-one] | < 200 | < 200 | < 200 |
| Fc1cccc(-c2cnoc2-c2c[nH]c3ncc(-c4ccc(N5CCNCC5)cc4)cc23)c1F [Compound 68, 3-[4-(2,3-Difluoro-phenyl)-isoxazol-5-yl]-5-(4-piperazin-1-yl-phenyl)-1H-pyrrolo[2,3-b]pyridine] | < 200 | < 200 | < 200 |
| Fc1ccc(-c2cnc3[nH]cc(-c4oncc4-c4cccc(F)c4F)c3c2)cn1 [Compound 69, 3-[4-(2,3-Difluoro-phenyl)-isoxazol-5-yl]-5-(6-fluoro-pyridin-3-yl)-1H-pyrrolo[2,3-b]pyridine] | 200 to 1000 | < 200 | < 200 |
| CN1CCN(c2ccc(-c3cnc4[nH]cc(-c5oncc5-c5cccc(F)c5F)c4c3)cc2)CC1 [Compound 70, 3-[4-(2,3-Difluoro-phenyl)-isoxazol-5-yl]-5-[4-(4-methyl-piperazin-1-yl)-phenyl]-1H-pyrrolo[2,3-b]pyridine methanesulfonate] | < 200 | < 200 | < 200 |
| CCN1CCC(c2cnc3[nH]cc(-c4oncc4-c4cccc(F)c4F)c3c2)CC1 [Compound 72, 3-[4-(2,3-Difluoro-phenyl)-isoxazol-5-yl]-5-(1-ethyl-piperidin-4-yl)-1H-pyrrolo[2,3-b]pyridine] | 1000 to 12500 | – | < 200 |
| Cn1ccc2c(-c3oncc3-c3cccc(F)c3F)c[nH]c2c1=O [Compound 144, 3-[4-(2,3-Difluoro-phenyl)-isoxazol-5-yl]-6-methyl-1,6-dihydro-pyrrolo[2,3-c]pyridin-7-one] | 1000 to 12500 | – | 200 to 1000 |
